Experiments:
Type in all cases: cell-based
P. acnes = test: agar dilution method: growth index and MIC on P. acnes (single compounds and combinations)
Method: Several compounds including fatty acids such as DGLA, 15-OHEPA, and 15-HETrE were tested to determine their capacity to inhibit the growth of P. acnes. In an exemplary method, an agar dilution method was used to determine the minimum inhibitory concentration (MIC) of each tested compound. Briefly, the agar dilution method involved preparing a series of concentrations of each compound (e.g., nicotinamide, benzoyl peroxide, adapalene, metronidazole, DGLA, 15-OHEPA, and 15-HETrE) in a Reinforced Clostridial Agar (RCA) media that facilitates growth of P. acnes under anaerobic conditions. An inoculum of P. acnes was prepared by incubation of P. acnes for approximately seven days at 35-37° C. to achieve a ≧1.0 OD600 inoculum of P. acnes in RCM broth. A portion of this inoculum was then added to the surface of each plate as a 10 μL spot and incubated at 35-37° C. for 72 hours or more. Growth of P. acnes was then observed and compared to control plates in which no compound has been added, and positive inhibition plates prepared with erythromycin. […] The growth of P. acnes in the presence of nicotinamide, benzoyl peroxide, adapalene, metronidazole, DGLA, 15-OHEPA, and 15-HETrE was determined with varying concentrations of the compound (see, Table 2). Next, the MIC was determined as the concentration at which a marked reduction (+) occurs in the appearance of growth on the test plate (as per Clinical and Laboratory Standards Institute M11-A7). The compounds tested singly in Example 1 were tested in combination with one another to determine the capacity of the combination to inhibit the growth of P. acnes. In an exemplary method, the MIC was determined for each of the combination as described in Example 1. Briefly, test combinations included DGLA with nicotinamide, benzoyl peroxide, adapalene, or metronidazole; 15-HETrE with nicotinamide, benzoyl peroxide, adapalene, or metronidazole; and 15-OHEPA with nicotinamide, benzoyl peroxide, adapalene, or metronidazole. The tables below show the growth of P. acnes in the presence of 0.4 or 1.0 mg/mL DGLA with varying concentrations of nicotinamide, benzoyl peroxide, adapalene, or metronidazole (Table 3); the growth of P. acnes in the presence of 0.01 or 0.05 mg/mL 15-HETrE with varying concentrations of nicotinamide, benzoyl peroxide, adapalene, or metronidazole (Table 5); and the growth of P. acnes in the presence of 0.5 or 0.1 mg/mL 15-OHEPA with varying concentrations of nicotinamide, benzoyl peroxide, adapalene, or metronidazole (Table 7).

A. brasiliensis = test: paper disc corrected zone of inhibition (CZOI) on Mueller Hinton agar
Method: (§1) The compounds tested in Example 1 were tested to determine their capacity to inhibit the growth of a variety of Gram-negative bacteria, Gram-positive bactgeria, fungi and yeast. In an exemplary method, Mueller Hinton agar plates were streaked with 500 μL of a 10^5 colony-forming units/mL culture and allowed to dry for at least one minute. A sterile paper disc (6 mm diameter) was then placed in the middle of each plate using sterile forceps. Twenty microliters of a solution of a known concentration of a test compound in filter-sterilized 95% ethanol were pipetted onto each test plate. Two streaked plates served as positive inhibitory controls and contained 6 mm sterile paper discs with standard tetracycline solutions. Two additional plates served as negative inhibition controls and each contained 6 mm sterile paper discs with 20 μL of filter-sterilized 95% ethanol. Two more plates served as positive growth controls and contained no paper disc or added antibacterial agent. The plates were incubated at 32.5±2° C. for 24±4 hours, after which the corrected zone of inhibition (“CZOI”) was determined as follows: For each plate, the length Y2 and width X2 of the test sample (paper disc) and length Y1 and width X1 of the clear zone were measured (FIG. 1). The CZOI was calculated from these values as shown by the equation below: [formula]

C. albicans = test: as above
Method: as §1

C. striatum = test: as above
Method: as §1

E. coli = test: as above
Method: as §1

E. faecalis = test: as above
Method: as §1

K. pneumoniae = test: as above
Method: as §1

P. aeroginosa = test: as above
Method: as §1

S. aureus = test: as above
Method: as §1

S. epidermidis = test: as above
Method: as §1

Compound: CCC=CCC(O)C=CC=CCC=CCC=CCCCC(=O)O (centres unmarked) [15-OHEPA, 15-Hydroxy-eicosa-5,8,11,13,17-pentaenoic acid]
- effect on growth of P. acnes on its own (P. acnes; 0.05 mg/mL): no effect on its own
- MIC (P. acnes; Cutibacterium acnes, compound alone, read-out: MIC (mg/mL) as per P-11-0007 or P-11-0008 Addendum A): 0.05 to 0.075 mg/mL
- Average CZOI (A. brasiliensis; 0.01 mg/mL): 0.25 mm
- Average CZOI (A. brasiliensis; 0.025 mg/mL): 1.75 mm
- Average CZOI (A. brasiliensis; 0.05 mg/mL): 2 mm
- Average CZOI (A. brasiliensis; 0.075 mg/mL): 3.75 mm
- Average CZOI (A. brasiliensis; 0.1 mg/mL): 2.75 mm
- Lowest Concentration With Observed Inhibition (A. brasiliensis; A. brasiliensis): 0.001 mg/mL
- Most Effective Concentration Observed (A. brasiliensis; A. brasiliensis): 0.075 mg/mL
- Average CZOI (C. albicans; 0.01 mg/mL): 1 mm
- Average CZOI (C. albicans; 0.025 mg/mL): 1.5 mm
- Average CZOI (C. albicans; 0.05 mg/mL): 2.5 mm
- Average CZOI (C. albicans; 0.075 mg/mL): 2.25 mm
- Average CZOI (C. albicans; 0.1 mg/mL): 1 mm
- Lowest Concentration With Observed Inhibition (C. albicans; C. albicans): 0.001 mg/mL
- Most Effective Concentration Observed (C. albicans; C. albicans): 0.05 mg/mL
- Average CZOI (C. striatum; 0.01 mg/mL): 3.25 mm
- Average CZOI (C. striatum; 0.025 mg/mL): 3 mm
- Average CZOI (C. striatum; 0.05 mg/mL): 3.5 mm
- Average CZOI (C. striatum; 0.075 mg/mL): 2 mm
- Average CZOI (C. striatum; 0.1 mg/mL): 1.5 mm
- Lowest Concentration With Observed Inhibition (C. striatum; C. striatum): 0.001 mg/mL
- Most Effective Concentration Observed (C. striatum; C. striatum): 0.05 mg/mL
- Average CZOI (E. coli; 0.01 mg/mL): 2 mm
- Average CZOI (E. coli; 0.025 mg/mL): 1.25 mm
- Average CZOI (E. coli; 0.05 mg/mL): 1.25 mm
- Average CZOI (E. coli; 0.075 mg/mL): 1.75 mm
- Average CZOI (E. coli; 0.1 mg/mL): 1.5 mm
- Lowest Concentration With Observed Inhibition (E. coli; E. coli): 0.001 mg/mL
- Most Effective Concentration Observed (E. coli; E. coli): 0.001 mg/mL
- Average CZOI (E. faecalis; 0.01 mg/mL): 2.5 mm
- Average CZOI (E. faecalis; 0.025 mg/mL): 1.5 mm
- Average CZOI (E. faecalis; 0.05 mg/mL): 2.25 mm
- Average CZOI (E. faecalis; 0.075 mg/mL): 1.25 mm
- Average CZOI (E. faecalis; 0.1 mg/mL): 1.5 mm
- Lowest Concentration With Observed Inhibition (E. faecalis; E. faecalis): 0.001 mg/mL
- Most Effective Concentration Observed (E. faecalis; E. faecalis): 0.001 mg/mL
- Average CZOI (K. pneumoniae; 0.01 mg/mL): 2.25 mm
- Average CZOI (K. pneumoniae; 0.025 mg/mL): 1.5 mm
- Average CZOI (K. pneumoniae; 0.05 mg/mL): 1 mm
- Average CZOI (K. pneumoniae; 0.075 mg/mL): 1.75 mm
- Average CZOI (K. pneumoniae; 0.1 mg/mL): 2.25 mm
- Lowest Concentration With Observed Inhibition (K. pneumoniae; K. pneumoniae): 0.001 mg/mL
- Most Effective Concentration Observed (K. pneumoniae; K. pneumoniae): 0.001 mg/mL
- Average CZOI (P. aeroginosa; 0.01 mg/mL): 1.25 mm
- Average CZOI (P. aeroginosa; 0.025 mg/mL): 1 mm
- Average CZOI (P. aeroginosa; 0.05 mg/mL): 1.5 mm
- Average CZOI (P. aeroginosa; 0.075 mg/mL): 1.75 mm
- Average CZOI (P. aeroginosa; 0.1 mg/mL): 1.5 mm
- Lowest Concentration With Observed Inhibition (P. aeroginosa; P. aeroginosa): 0.001 mg/mL
- Most Effective Concentration Observed (P. aeroginosa; P. aeroginosa): 0.075 mg/mL
- Average CZOI (S. aureus; 0.01 mg/mL): 0 mm
- Average CZOI (S. aureus; 0.025 mg/mL): 1 mm
- Average CZOI (S. aureus; 0.05 mg/mL): 1.25 mm
- Average CZOI (S. aureus; 0.075 mg/mL): 2.25 mm
- Average CZOI (S. aureus; 0.1 mg/mL): 2 mm
- Lowest Concentration With Observed Inhibition (S. aureus; S. aureus): 0.025 mg/mL
- Most Effective Concentration Observed (S. aureus; S. aureus): 0.075 mg/mL
- Average CZOI (S. epidermidis; 0.01 mg/mL): 1 mm
- Average CZOI (S. epidermidis; 0.025 mg/mL): 2 mm
- Average CZOI (S. epidermidis; 0.05 mg/mL): 2.25 mm
- Average CZOI (S. epidermidis; 0.075 mg/mL): 3 mm
- Average CZOI (S. epidermidis; 0.1 mg/mL): 1.25 mm
- Lowest Concentration With Observed Inhibition (S. epidermidis; S. epidermidis): 0.001 mg/mL
- Most Effective Concentration Observed (S. epidermidis; S. epidermidis): 0.075 mg/mL

Reference: US20140171358A1, “ANTIMICROBIAL COMPOSITIONS COMPRISING DGLA AND NEOMYCIN SULFATE AND METHODS OF USE THEREOF” (Dignity Sciences Limited, priority 2012, published 2014)
